Source: patent publication US20140004209A1, “AUTOPHAGY INDUCER AND INHIBITOR COMBINATION THERAPY FOR THE TREATMENT OF NEOPLASMS” (GENENTECH, INC., priority 2010, published 2014)
Entries after “also recorded” stand apart in the source; their conditions may differ.

Key:
PC3 xenograft tumors = test: PC3 xenograft tumor growth; format: in vivo, mice
Procedure: Xenograft study: Six- to 8-week-old female athymic nude nu/nu mice were purchased from Charles River Laboratories and maintained in Genentech's conventional animal facility. Mice were injected in the right flank with 5˜7.5×10^6 cells resuspended in 200 μl Hank's Balanced Salt Solution (Invitrogen). When tumors reached a mean volume of 100˜300 mm^3 the mice with similarly-sized tumors were grouped into treatment cohorts. […] Amber-colored water bottles were used and were changed 3 times per week. […] Tumors were measured with calipers and mice weighed twice per week. Mice whose tumors reached 2000 mm^3 or lost more than 20% body weight were euthanized. Between 8˜10 mice were used for each treatment group. Statistical significance was analyzed using the JMP software (SAS Institute, Inc.).
We next examined the effect of Akt KDs on the ability of PC3 cells to maintain the growth of established tumors in vivo.

PC3 cells [1] = test: Autophagy markers in PC3 cells (EM AVs, GFP-LC3, LC3-II/LC3-I, MDC, AO); format: cell-based, human
Procedure: (§1) Western blot analysis, immunofluorescence, 1HC and TUNEL assay: For Western blot analysis, total protein lysates were subjected to SDS-PAGE and transferred to nitrocellulose. […] Detection and quantification were performed using an Odyssey infrared scanner (LICOR) using the manufacturer's software. For immunofluorescence staining, cells were fixed in 3% paraformaldehyde and permeabilized with 0.01% digitonin in PBS, followed by a rabbit polyclonal anti-LC3 (Abgent) primary antibody detected with a cy3-conjugated anti-rabbit secondary antibody (Jackson Immunoresearch). For IHC, formalin-fixed, paraffin-embedded specimens were collected. 5-μm-thick paraffin-embedded sections were stained using an anti-Ki-67 (MIB-1, DakoCytomation) antibody with the Dako ARK kit (Dako Corporation). Tissues were counterstained with haematoxylin, dehydrated, and mounted. In all cases, antigen retrieval was performed with the Dako Target Retrieval Kit as per manufacturer's instructions. For TUNEL assay, formalin-fixed, paraffin-embedded sections were stained using an in situ cell death detection kit (POD; Roche Diagnostic) according to the manufacturer's instructions.
Ultrathin sections were stained with uranyl acetate and lead citrate. Numbers of AV were counted on systematically sampled cytoplasmic areas of 4.5 μm^2 (n≧64 per condition). The percent AV area was measured by means of a square mesh grid laid over ≧5 sets of systematically sampled micrographs with each set covering a cytoplasmic area ≧80 μm^2. The average percent of apoptotic nuclei in tumor tissues was calculated from the number of apoptotic nuclei in 3 to 4 sets of 100 systematically counted tumor cell nuclei.
Multispectral imaging flow cytometry: Cells treated with various agents were stained with Acridine Orange and analyzed by the ImageStream system (Amnis Corporation, Seattle, Wash.) using the IDEAS image analysis program. The DNA AOGreen image and the vacuolar AO Red image were first compensated into separate channels, and then the percentage of apoptotic/anucleate cells (based on AO nuclear morphology and intensity) and vacuolated cells (AO Red+) were quantified. […] AORed Intensity is plotted on the second histogram with an arbitrary gate (R5) drawn to include events with the brightest AO Red intensity.

PC3 cells [2] = test: Time-lapse microscopy of PC3 cells; format: cell-based, human; details: 10 μM, 5% FBS, 3 d
Procedure: Time-lapse video microscopy: Cells cultured in 24-well plates were imaged on an Olympus IX81 inverted microscope under environmental control (37° C. and 5% CO2) for 3 days. Imaging started 6 hours after the addition of the compounds and was taken at 1-hour intervals.

PC3 cells [3] = test: Immunoblot of LAMP1, cathepsin D and p62 in PC3 cells; format: cell-based, human
Description: as §1, with “nitrocellulose. Antibodies used were: anti-Akt1, anti-Akt2, anti-Akt3, anti-total-Akt, anti-p-Akt (Ser473), anti-p-Akt (Thr308), anti-p-S6 (Ser235/236), anti-PARP and anti-cleaved caspase-3 (Cell Signaling Technology); anti-p-PRAS40 (Invitrogen); anti-p27^Kip1 (Santa Cruz Biotechnology); anti-LC3 (Novus); anti-LAMP2 and anti-Cathepsin D (BD Biosciences); and anti-GAPDH (Advanced Immunochemical Inc.).” for “nitrocellulose.”
Because autophagy is a key function of the lysosomal compartment (Terman, A., B. Gustafsson, and U. T. Brunk, (2006), The lysosomal-mitochondrial axis theory of postmitotic aging and cell death. Chem Biol Interact. 163:29-37), we examined the lysosomal marker LAMPI and cathepsin D, the predominant lysosomal aspartic protease, by immunoblotting (FIG. 6, B and C). […] Cathepsin D is synthesized as a 43-kD preprocathepsin D that is cleaved cotranslationally and glycosylated to form a 46-kD procathepsin D, which is targeted to lysosomes yielding an intermediate that is further cleaved into a mature enzyme consisting of a 15-kD light chain and a 28-kD heavy chain.

PC3 cells [4] = test: Mitochondrial membrane potential (MitoPT dye) in PC3 cells; format: cell-based, human; details: 0.5% FBS
Procedure: FIG. 21. […] Images at 48 h are shown. […] Merged images between red and green channels are also shown (MitoPT-M). Scale bar: 20 μm. (B) Percentage of cells showing red punctate stains and diffuse green stains from treatments described in (A). >86 cells from two random fields of fluorescent images of each treatment were counted. Error bars represent standard deviations between the two fields. […] Total fluorescence intensity from all cells was collected using the Isocyte (Blueshift Biotechnologies), a laser scanning imager. Green fluorescence intensity is collected with a 488 nm laser and a 510-540 nm band pass filter, and normalized to cell number determined by Hoechst staining using a 405 nm laser and a 430-480 nm band pass filter. Error bars, standard deviation between two independent experiments. (D) Representative images of the green ROS signals and bright field (BF) taken under a Nikon TE300 inverted microscope. […] Scale bar: 20 μm.
Cell Culture and Reagents: The PTEN^−/− and PTEN^+/+ MEFs were maintained as previously described (Sun, H., R. Lesche, D. M. Li, J. Liliental, H. Zhang, J. Gao, N. Gavrilova, B. Mueller, X. Liu, and H. Wu, (1999), PTEN modulates cell cycle progression and cell survival by regulating phosphatidylinositol 3,4,5,-trisphosphate and Akt/protein kinase B signaling pathway. Proc Natl Acad Sci USA. 96:6199-204). The PC3 and U87MG cells were maintained at 37° C. and 5% CO2 in DMEM/Ham's F-12 (1:1) containing 10% tetracycline-free fetal bovine serum. II-4 was from Calbiochem (Akt inhibitor VIII) (Barnett, S. F., D. Defeo-Jones, S. Fu, P. J. Hancock, K. M. Haskell, R. E. Jones, J. A. Kahana, A. M. Kral, K. Leander, L. L. Lee, J. Malinowski, E. M. McAvoy, D. D. Nahas, R. G. Robinson, and H. E. Huber, (2005), Identification and characterization of pleckstrin-homology-domain-dependent and isoenzyme-specific Akt inhibitors. Biochem J. 385:399-408). […] Image-iT LIVE Green Reactive Oxygen Species Detection Kit was purchased from Molecular Probes. MitoPT Mitochondria Permeability Transition Detection Kit was purchased from Immunochemistry Technologies, LLC.

PC3 cells [5] = test: Mitochondrial superoxide (MitoSOX red) and cellular ROS in PC3 cells; format: cell-based, human
Procedure: (B) PC3 cells treated as in A were stained with the Image-iT LIVE green ROS Detection kit and examined by fluorescence microscopy at 24 h. […] (C) Quantification of MitoSOX red and ROS green fluorescence intensities by flow cytometry at 24 h. Cells were treated as in A and B. Error bars represent SEM (n=3).
Because mitochondria are the primary intracellular source of superoxide (O2^−) generation, we analyzed O2^− production using MitoSOX red, an O2^− indicator that accumulates in the mitochondria as a function of membrane potential and fluoresces upon oxidation and subsequent binding to DNA.

[6] = Autophagic vacuole accumulation by side scatter (SSC) in a flow cytometer; format: cell-based
Description: Inhibitors include 3-phenyl-2-(4-((4-(5-(pyridin-2-yl)-1H-1,2,4-triazol-3-yl)piperidin-1-yl)methyl)phenyl)-1,6-naphthyridin-5(6H)-one (II-3), benzyl 2-(4-(3-ethylureido)phenyl)-4-(1,4-oxazepan-4-yl)-5H-pyrrolo[3,4-d]pyrimidine-6(7H)-carboxylate (III-1); 1-ethyl-3-(4-(4-morpholino-7-(pyrimidin-2-yl)-5,6,7,8-tetrahydropyrido[3,4-d]pyrimidin-2-yl)phenyl)urea (III-2), (R)-1-(44(2-(2-aminopyrimidin-5-yl)-7-methyl-4-morpholinothieno[3,2-d]pyrimidin-6-yl)methyl)piperazin-1-yl)-2-hydroxypropan-1-one (III-3), 4-(2-(1H-indazol-4-yl)-6-((4-(methylsulfonyl)piperazin-1-yl)methyl)thieno[3,2-d]pyrimidin-4-yl)morpholine (III-6), (S)—N-(4-(benzo[d][1,3]dioxol-5-yl)thiazol-2-yl)-N-(3-(2-formylpiperidin-1-yl)propyl)thiophene-2-carboxamide (IV-2) and Rapamycin.
FIG. 14 depicts CQ (10 μM) increases the number and size of autophagic vacuoles when combined with the various mTOR, PI3K, and Akt inhibitors.

[7] = Cell death in combination with CQ (FIG. 17); format: cell-based
[8] = system: 537MEL melanoma cell line; test: Autophagy (Acridine Orange) and apoptosis (AnnV/PI) induction with CQ; format: cell-based
Description: (§2) FIGS. 32A-B and 34A-B depict data showing correlation between Autophagy induction and apoptosis induction when each compound is combined with CQ at 24 hrs after the given compound treatment measured by Acridine Orange staining in 537MEL melanoma cell line and SKBR3Breast cancer cell line, respectively. Control was DMSO.
(§3) FIGS. 33A-G and 35A-G show dose response curve of apoptosis induction in 537MEL melanoma and SKBR3Breast cancer cells, respectively, treated with the indicated compound alone or with 10 μM CQ, measured by Annezin V (AnnV) and Propidium iodide (PI) staining.

[9] = system: SKBR3Breast cancer cell line; test: as above; format: cell-based
Description: as §2, §3

[10] = 24 hrs, Acridine Orange staining

In the case of `CCN(CC)CCCC(C)Nc1ccnc2cc(Cl)ccc12` (stereo not shown) [CQ, chloroquine], the “tumors with stasis maintained throughout the study” value (PC3 xenograft tumors; PC3-shAkt123 xenograft, both Dox and CQ) is reported as 20%, the “tumors with complete regression” value (PC3 xenograft tumors; PC3-shAkt123 xenograft, both Dox and CQ, intraperitoneal) is reported as 40% and the “incidence of complete tumor remission, CQ combined with Akt knockdown” value (PC3 xenograft tumors; mouse, in vivo) is reported as “significantly increased the incidence of complete tumor remission; also recorded: increased the incidence of complete tumor remissions in vivo”. For the same molecule, the “AVO accumulation, agent alone (multispectral imaging flow cytometry)” value (PC3 cells [1]) was “induced AVO accumulation without significant loss of viability”, the “induction of AV accumulation / autophagy, agent alone” value (PC3 cells [1]) was “induced accumulation of AVs” and the “cell division and morphology, agent alone” value (PC3 cells [2]) was “mild decrease in cell division and a gradual accumulation of dark particles in the perinuclear region”. The p62 level (PC3 cells [3]) was “increased the level of p62 both with and without Akti; also recorded: blocked p62 degradation both with and without II-4 treatment”, the “mitochondrial membrane potential, agent alone” value (PC3 cells [4]) was “did not have a significant effect” and the “MitoSOX fluorescence, agent alone” value (PC3 cells [5]) was “mild increase in MitoSOX signal”. The “cellular ROS signal, agent alone” value (PC3 cells [5]) was “little effect on ROS levels”.

For `CS(=O)(=O)N1CCN(Cc2cc3nc(-c4cccc5[nH]ncc45)nc(N4CCOCC4)c3s2)CC1` [III-6, 4-(2-(1H-indazol-4-yl)-6-((4-(methylsulfonyl)piperazin-1-yl)methyl)thieno[3,2-d]pyrimidin-4-yl)morpholine], the “autophagic vacuole accumulation (SSC), inhibitor alone” value [6] was “induce increased autophagic vacuole accumulation” and the “interaction with CQ on cell death” value [7] was “synergize with CQ to accelerate cell death”.

In the case of `O=C(NOC[C@H](O)CO)c1ccc(F)c(F)c1Nc1ccc(I)cc1F` [VII, (R)—N-(2,3-dihydroxypropoxy)-3,4-difluoro-2-(2-fluoro-4-iodophenylamino)benzamide], the “apoptosis induction when combined with CQ” value ([8]; 10 μM CQ, AnnV and PI staining) is reported as “no synergistic apoptosis induction is shown when combined with CQ; also recorded: CQ does not induce apoptosis in cancer cells”, the autophagy induction [8, 10] is reported as “does not induce an increase in autophagy” and the “apoptosis induction when combined with CQ” value ([9]; 10 μM CQ, AnnV and PI staining) is reported as “no synergistic apoptosis induction is shown when combined with CQ; also recorded: CQ does not induce apoptosis in cancer cells”. The autophagy induction [9, 10] was “does not induce an increase in autophagy”.
